According to paper PMC8521653 (ACS Medicinal Chemistry Letters, 2021):
Where two headings read alike, the source gives them in different places. Marks after values point to notes of the source that are not given here.

Columns and labels:
[1] = tested on: PREP-catalyzed α-synuclein dimerization in N2A cells; experiment: αSyn dimerization, protein fragment complementation assay (PCA) in N2A cells; type: cell-based; conditions: 10 μM; for decrease of aSyn dimerization compared to DMSO control: PCA, Figure S1A, % decrease; for activity at 10 µM: Mus musculus, luminescence signal percentage of DMSO control with SEM, N2A cells
Protocol: The effect of the compounds on autophagy was determined by using GFP-LC3B-RFP expressing HEK-293 cells.[15],[34] The effect on αSyn dimerization was evaluated with a protein fragment complementation assay (PCA) by using N2A cells.[10],[15],[16] The increase in autophagic flux was measured as a decrease in GFP signal due to increased degradation of GFP-LC3B, and the decrease in αSyn dimerization was measured as a decrease in luminescence, both compared with DMSO (Table 1). […] Rapamycin and starvation are known to induce autophagy, lowering the fluorescence to 65–70% in our assays, and were therefore used as reference compounds for this. Test compounds were assayed at 10 μM concentration with 0.1% DMSO. A graphical representation of the mean values (± SEM) can be seen in the Supporting Information (Figure S1).
Measuring biological activity […]
α-Synuclein Dimerization. αSyn dimerization was assessed by using PCA, which was carried out as described previously in Kilpeläinen et al.1 In short, N2A cells were seeded on poly-L-lysine-coated 96-well plates (Isoplate™ white wall, PerkinElmer Life Sciences) at the density of 13 000 cells/well. 24 h post-plating, reporter plasmids were transfected with 100 ng of total plasmid DNA per well. N2A cells were transfected with 25 ng of both αSyn-Gluc1 and αSyn-Gluc2 and 50 ng mock-plasmid or non-tagged human PREP expression plasmid 50 ng/well. Lipofectamine 3000 (Thermo Fischer Scientific) was used as the transfection reagent. 100 µL normal growth medium was added to all wells at 24 h post-transfection. 48 hours post-transfection medium was changed to phenol red free DMEM without serum containing the tested compounds at 10 µM concentration, with 0,1% DMSO as vehicle control. Proteasome inhibitors lactacystin (AG Scientific) at 10 µM and MG-132 (Enzo Life Sciences) at 10 µM served as a positive control. The PCA signal was assessed by injecting 25 µL of native coelenterazine (Nanolight Technology) in phenol red free DMEM per well (final concentration 6 µM). The emitted luminescence was read using Varioskan LUX multimode microplate reader (Thermo Scientific). For each experimental condition, 4 replicate wells were used in each experiment, and at least 3 separate experiments for each treatment except for 15c which had 2 separate experiments. […]

[2] = tested on: GFP-LC3B-RFP expressing HEK-293 cells; experiment: Autophagic flux, GFP signal in GFP-LC3B-RFP expressing HEK-293 cells; type: cell-based; conditions: for effect on autophagy (in words) / activity at 10 µM: 10 μM; for activity at 10 µM: Homo sapiens, HEK293, GFP signal percentage of DMSO control with SEM, HEK-293 cells, read-out: autophagy at 10 μM (%)
[3] = tested on: PREP-catalyzed α-synuclein dimerization in N2A cells; conditions: luminescence signal percentage of DMSO control with SEM, ref Kilpeläinen et al.[16]; cited from earlier work
[4] = target: T1, purified recombinant porcine PREP (Sus scrofa, UniProt P23687); set-up: method as in Kilpeläinen et al.[16]; conditions: 95% CI in brackets, ref Kilpeläinen et al.[16]; cited from earlier work
T1 construct: made in house; host or cells: E. coli
T1 sequence (P23687 whole entry): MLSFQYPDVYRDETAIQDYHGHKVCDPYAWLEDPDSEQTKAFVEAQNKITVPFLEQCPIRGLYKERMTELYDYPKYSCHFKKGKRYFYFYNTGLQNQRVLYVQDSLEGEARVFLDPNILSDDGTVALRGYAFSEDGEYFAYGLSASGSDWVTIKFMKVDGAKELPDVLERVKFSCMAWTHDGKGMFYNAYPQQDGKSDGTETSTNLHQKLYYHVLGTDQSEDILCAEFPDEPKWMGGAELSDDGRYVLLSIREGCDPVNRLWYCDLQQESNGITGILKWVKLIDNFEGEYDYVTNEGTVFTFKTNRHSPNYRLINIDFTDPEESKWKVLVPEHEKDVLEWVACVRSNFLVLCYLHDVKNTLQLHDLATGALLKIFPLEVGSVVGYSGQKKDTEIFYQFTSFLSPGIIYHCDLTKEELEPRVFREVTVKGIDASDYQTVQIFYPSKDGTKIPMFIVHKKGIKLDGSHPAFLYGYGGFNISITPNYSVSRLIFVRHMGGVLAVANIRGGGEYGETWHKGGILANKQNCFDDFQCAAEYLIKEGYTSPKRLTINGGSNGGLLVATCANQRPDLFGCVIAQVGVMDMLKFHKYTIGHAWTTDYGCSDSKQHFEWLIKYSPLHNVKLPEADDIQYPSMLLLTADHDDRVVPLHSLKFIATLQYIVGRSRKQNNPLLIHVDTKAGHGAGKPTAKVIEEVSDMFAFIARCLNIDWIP

[5] = target: T1, purified recombinant porcine PREP; experiment: Inhibition of the proteolytic activity of PREP, microplate assay with Suc-Gly-Pro-AMC substrate; type: biochemical; conditions: for IC50: Suc-Gly-Pro-AMC, 30 °C, pH 7.0, 95% CI in brackets; for PREP activity at 1 nM inhibitor concentration compared to control: remaining activity
Protocol: Inhibition of the proteolytic activity (IC50) of PREP was determined using purified recombinant porcine PREP[25] as previously described.[16]
Measuring biological activity
Inhibitory Activity. The IC 50 values for compounds were determined in the microplate assay procedure described in Kilpeläinen et al.1 Porcine PREP cDNA was expressed in E.coli cells and purified as described in Venäläinen et al.3 The enzyme dilution was preincubated with 0.1 M sodium–potassium phosphate buffer (75 µL, pH 7.0) containing the compounds at desired concentrations in 30 °C for 30 min. The final concentration of the compounds in the assay mixture varied from 1 mM-1 nM and the final concentration of the enzyme was approximately 0.1 nM as measured by Bradford´s method. The enzyme reaction was carried out by adding 25 µL of 4 mM Suc-Gly-Pro-AMC substrate dissolved in 0.1 M sodium–potassium phosphate buffer (pH 7.0) into the assay mixture and incubating at 30° C for 60 min. The reaction was terminated by adding […] of 1 M sodium acetate buffer (pH 4.2). Formation of AMC was measured with Victor2 multilabel counter (PerkinElmer; excitation/emission 360 nm/ 460 nm), with a standard curve of 0.1-5 nM AMC in 0.1 M sodium–potassium phosphate buffer present. All activity measurements were made at least in triplicate. The inhibitory activities (percent of control) were plotted against the log concentration of the compound, and the IC50-value was determined by non-linear regression utilizing GraphPad Prism 7.0 software. […]

[6] = tested on: GFP-LC3B-RFP expressing HEK-293 cells; set-up: method as in Kilpeläinen et al.[15]; conditions: GFP signal percentage of DMSO control with SEM, ref Kilpeläinen et al.[15]; cited from earlier work

IC50 ([5]; recombinant porcine PREP) [nM] | SMILES | effect on autophagy (in words) [2] | activity at 10 µM ([2]; 24 h) [%] | α-synuclein dimerization at 10 μM (%) [3] | effect on αSyn dimerization (in words) [1] | activity at 10 µM [1] [%] | further results
520000 | Cn1nnnc1[C@@H]1CCCN1C(=O)[C@@H]1CCCN1C(=O)CCCc1ccccc1 [Compound 18a] | capable of inducing autophagy | 88 | – | lost the activity on αSyn dimerization | 105 | –
1100 | O=C(CCCc1ccccc1)N1CCC[C@H]1C(=O)N1CCC[C@H]1c1cnn[nH]1 [Compound 25a] | – | 93 | – | – | 104 | –
< 1 | O=C(CCc1ccccc1)N1CCC[C@H]1C(=O)N1CCC[C@H]1c1ncc[nH]1 [Compound 26a] | – | 102 | – | still retaining some modulating activity | 89 | PREP activity at 1 nM inhibitor concentration compared to control [5]: 41%
< 1 | O=C(CCCc1ccccc1)N1CCC[C@H]1C(=O)N1CCC[C@H]1c1ncc[nH]1 [Compound 27a] | no effect on autophagy | 96 | – | – | 72 | PREP activity at 1 nM inhibitor concentration compared to control [5]: 25%; decrease of aSyn dimerization compared to DMSO control [1]: 28%
2100 | C[C@H](NC(=O)CCCc1ccccc1)C(=O)N1CCC[C@H]1c1ncc[nH]1 [Compound 27b] | did not retain either of the activities | 106 | – | did not retain either of the activities | 110 | –
< 1 | O=C(CCCCc1ccccc1)N1CCC[C@H]1C(=O)N1CCC[C@H]1c1ncc[nH]1 [Compound 28a] | – | 102 | – | – | 110 | PREP activity at 1 nM inhibitor concentration compared to control [5]: 20%
44 | O=C(CCCc1ccccc1)N1CCC[C@H]1C(=O)N1CCC[C@H]1c1cnc[nH]1 [Compound 29a] | some minor activity in modulating autophagy | 92 | – | no activity on αSyn dimerization | 98 | –

The remaining lines, values behind:

SMILES | IC50 ([5]; recombinant porcine PREP) [nM] | effect on autophagy (in words) [2] | activity at 10 µM ([2]; 24 h) [%] | α-synuclein dimerization at 10 μM (%) [3] | effect on αSyn dimerization (in words) [1] | activity at 10 µM [1] [%] | further results
O=C(CCCc1ccccc1)N1CCC[C@H]1C(=O)N1CCC[C@H]1c1nnn[nH]1 [Compound 1a] | – | no significant activity | 92 | 82 ^e (6.8) % | – | – | decrease of aSyn dimerization compared to DMSO control [1]: 23%
C[C@H](NC(=O)CCCc1ccccc1)C(=O)N1CCC[C@H]1c1nnn[nH]1 [Compound 1b] | – | effective at inducing autophagy | 71 | 75 ^e (4.9) % | – | – | decrease of aSyn dimerization compared to DMSO control [1]: 25%; decrease in autophagic flux assay GFP signal compared to DMSO control ([2]; 10 µM, 24 h, Figure S1B, % decrease): 29%
CN(CC(=O)N1CCC[C@H]1c1nnn[nH]1)C(=O)CCCc1ccccc1 [Compound 1c] | – | some effect | 84 | 75 ^e (7.7) % | – | – | –
C[C@@H](C(=O)N1CCC[C@H]1c1nnn[nH]1)N(C)C(=O)CCCc1ccccc1 [Compound 1d] | – | no significant activity | 93 | 75 ^e (7.3) % | – | – | –
O=C(CCCc1ccccc1)NCC(=O)N1CCC[C@H]1c1nnn[nH]1 [Compound 1e] | – | no significant activity | 90 | 77 ^e (6.2) % | – | – | IC50 [4]: 210000 nM
O=C(CCCc1ccccc1)N1CCC[C@H]1C(=O)N1CCC[C@H]1c1ccn[nH]1 [Compound 30a] | – | some minor activity in modulating autophagy | 89 | – | no activity on αSyn dimerization | 99 | IC50 value (in words) ([5]; recombinant porcine PREP): micromolar range
N#C[C@@H]1CCCN1C(=O)[C@@H]1CCCN1C(=O)CCCc1ccccc1 [KYP-2047] | – | – | – | – | – | – | autophagy at 10 μM (%) [6]: 89 ^d (3.4) %
